One experiment has as its system SW620 cells. The experiment can be described thus: Inhibition of cancer cell proliferation, total cellular protein (Sulphorhodamine B), SW620. Particulars: Homo sapiens, SW-620, 72 h, read-out: IC50 based on quantitation of total cellular protein after treatment. Here is the method:
To assess the antiproliferative response elicited by the compounds of the present invention in different tumour cell lines, total cellular protein in samples was quantified using the Sulphorhodamine B kit, TOX6, (Sigma-Aldrich). The protocol is based on quantitation of total cellular protein after indicated treatments and incubation times using the Sulphorhodamine B kit, TOX6, (Sigma-Aldrich).
Briefly, after protein precipitation using TCA according to the manufacturer's instructions, the sulphorhodamine dye (80 μL/well) was added to the air-dried wells. After 20 min incubation at room temperature, the dye was discarded and the samples were gently rinsed with 1% HOAc until clear. After air drying, bound dye was solubilised in 200 μL 10 mM Tris base, and the absorbance of dye was measured at 565 nm. To quantify growth, samples were collected also at t=0 h, and the resulting absorbance was set to 100%. […]
After protein precipitation using TCA according to the manufacturer's instructions, the sulforhodamine B dye (50 μL/well) was added to the air-dried wells. […] After air drying, bound dye was solubilised in 100 μL 10 mM Tris base, and the absorbance of dye was measured at 530 nm and a background absorbance (subtract from the measurement at 530 nm) at 690 nm. To quantify growth, samples were collected also at t=0 h.

The test system of the next experiment is F-2,6-P2 in PANC-1 cells. The experiment can be described thus: Quantification of F-2,6-P2 (Van Schaftingen coupled enzyme assay) in PANC-1 cells. Format: cell-based, human. The conditions noted are these: Homo sapiens; PANC-1 cells; read-out: IC50 based on quantification of F-2,6-P2. The method, boiled down: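 PANC-1 cells (~25 000/well) starved 18 h in glucose-free 0.25% FBS medium, treated 1 h with compound (50 and 10 μM, or dose response from 50 μM; 0.5% DMSO), then glucose added for 2 h at 37 °C. Cells lysed in NaOH; F-2,6-P2 quantified by PPi-PFK coupled NADH-consumption spectrophotometry.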

Each structure is given as a SMILES string.

The IC50 is the concentration at which inhibition is half-maximal. `COC(=O)c1ccc(NS(=O)(=O)c2cc(Cl)c(Cl)s2)cc1OC(C)=O` [Example 132, Methyl 2-(acetyloxy)-4-{[(4,5-dichlorothiophen-2-yl)sulfonyl]amino}benzoate]: the IC50 is 11.8 µM in the experiment with SW620 cells and 1.5 µM with F-2,6-P2 in PANC-1 cells.
